Results from patent US20230416205A1, “COMPOUNDS, COMPOSITIONS, AND METHODS” (Denali Therapeutics Inc, priority 2020, published 2023).

Tested on: NLRP3
Assay: IL-1β secretion assay in PMA-differentiated, LPS/nigericin-stimulated THP-1 cells (384-well, ELISA read-out)
Assay type: cell-based, human
Settings: Homo sapiens, THP-1, Table 4; IL-1β secretion, LPS/nigericin-stimulated THP-1 cells; read-out: IC50
Procedure, shortened: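 THP-1 cells differentiated with PMA (5 ng/mL, 40 h), primed in serum-free medium with 25 ng/mL LPS for 2 h, treated with compounds 1 h (0.5% DMSO), then stimulated with nigericin for 2 h at 37 °C. Supernatant IL-1β measured by ELISA; responses normalized to LPS+5 μM nigericin and LPS-only controls.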

SMILES	IC50
O=C(CN1CC2(CC2)c2cc(Br)ccc2C1=O)NC1CCN(c2ncccn2)CC1 [Example 380, 2-(6-bromo-1-oxospiro[3H-isoquinoline-4,1′-cyclopropane]-2-yl)-N-(1-pyrimidin-2-ylpiperidin-4-yl)acetamide]	11.4 µM
O=C(CN1CC2(CC2)c2cc(Br)ccc2C1=O)N[C@@H]1CCN(C2COC2)C1 [Example 381, 2-(6-bromo-1-oxospiro[3H-isoquinoline-4,1′-cyclopropane]-2-yl)-N-[(3R)-1-(oxetan-3-yl)pyrrolidin-3-yl]acetamide]	12.1 µM
COCC1CC(NC(=O)CN2CC3(CC3)c3cc(Br)ccc3C2=O)C1 (stereo not drawn) [Example 382, 2-(6-bromo-1-oxospiro[3H-isoquinoline-4,1′-cyclopropane]-2-yl)-N-[3-(methoxymethyl)cyclobutyl]acetamide]	8.79 µM
O=C(CN1CC2(CC2)c2cc(Br)ccc2C1=O)Nc1cc2ccccn2n1 [Example 383]	1.23 µM
CCN1CC[C@@H](NC(=O)CN2CC3(CC3)c3cc(Br)ccc3C2=O)C1 [Example 384, 2-(6-bromo-1-oxospiro[3H-isoquinoline-4,1′-cyclopropane]-2-yl)-N-[(3R)-1-ethylpyrrolidin-3-yl]acetamide]	11.6 µM
O=C(CN1CC2(CC2)c2cc(Br)ccc2C1=O)Nc1cn2ccccc2n1 [Example 385]	1.82 µM
O=C(CN1CC2(CC2)c2cc(Br)ccc2C1=O)Nc1nc2c(o1)CCCC2 [Example 386, 2-(6-bromo-1-oxospiro[3H-isoquinoline-4,1′-cyclopropane]-2-yl)-N-(4,5,6,7-tetrahydro-1,3-benzoxazol-2-yl)acetamide]	1.45 µM
O=C(CN1CC2(CC2)c2cc(Br)ccc2C1=O)NC1CCN(c2cccnn2)CC1 [Example 387, 2-(6-bromo-1-oxospiro[3H-isoquinoline-4,1′-cyclopropane]-2-yl)-N-(1-pyridazin-3-ylpiperidin-4-yl)acetamide]	5.29 µM
Cc1c(C#N)cnc(NC(=O)CN2CC3(CC3)c3cc(Br)ccc3C2=O)c1F [Example 389, 2-(6-bromo-1-oxospiro[3H-isoquinoline-4,1′-cyclopropane]-2-yl)-N-(5-cyano-3-fluoro-4-methylpyridin-2-yl)acetamide]	0.546 µM
Cc1nc(NC(=O)CN2CC3(CC3)c3cc(Br)ccc3C2=O)c(F)cc1C#N [Example 390, 2-(6-bromo-1-oxospiro[3H-isoquinoline-4,1′-cyclopropane]-2-yl)-N-(5-cyano-3-fluoro-6-methylpyridin-2-yl)acetamide]	9.84 µM
COc1ncc(F)c(NC(=O)CN2CC3(CC3)c3cc(Br)ccc3C2=O)n1 [Example 391, 2-(6-bromo-1-oxospiro[3H-isoquinoline-4,1′-cyclopropane]-2-yl)-N-(5-fluoro-2-methoxypyrimidin-4-yl)acetamide]	22.4 µM
N#Cc1cc(F)cnc1NC(=O)CN1CC2(CC2)c2cc(Br)ccc2C1=O [Example 392, 2-(6-bromo-1-oxospiro[3H-isoquinoline-4,1′-cyclopropane]-2-yl)-N-(3-cyano-5-fluoropyridin-2-yl)acetamide]	5.7 µM
CCN1CCC12CC(NC(=O)CN1CC3(CC3)c3cc(Br)ccc3C1=O)C2 (stereo not drawn) [Example 393, 2-(6-bromo-1-oxospiro[3H-isoquinoline-4,1′-cyclopropane]-2-yl)-N-(1-ethyl-1-azaspiro[3.3]heptan-6-yl)acetamide]	7.89 µM
CC(C)(C)OC(=O)N1CCC12CC(NC(=O)CN1CC3(CC3)c3cc(Br)ccc3C1=O)C2 (stereo not drawn) [Example 394, tert-butyl 6-[[2-(6-bromo-1-oxospiro[3H-isoquinoline-4,1′-cyclopropane]-2-yl)acetyl]amino]-1-azaspiro[3.3]heptane-1-carboxylate]	5.21 µM
N#Cc1cnc(NC(=O)CN2CC3(CC3)c3cc(Br)ccc3C2=O)c(Cl)c1 [Example 395, 2-(6-bromo-1-oxospiro[3H-isoquinoline-4,1′-cyclopropane]-2-yl)-N-(3-chloro-5-cyanopyridin-2-yl)acetamide]	1.38 µM
Cc1cnc(NC(=O)CN2CC3(CC3)c3cc(Br)ccc3C2=O)c(F)c1 [Example 396, 2-(6-bromo-1-oxospiro[3H-isoquinoline-4,1′-cyclopropane]-2-yl)-N-(3-fluoro-5-methylpyridin-2-yl)acetamide]	1.6 µM
Cc1cc(C#N)cnc1NC(=O)CN1CC2(CC2)c2cc(Br)ccc2C1=O [Example 397, 2-(6-bromo-1-oxospiro[3H-isoquinoline-4,1′-cyclopropane]-2-yl)-N-(5-cyano-3-methylpyridin-2-yl)acetamide]	2 µM
O=C(CN1CC2(CC2)c2cc(Br)ccc2C1=O)Nc1ccc2cnsc2c1 [Example 398, N-(1,2-benzothiazol-6-yl)-2-(6-bromo-1-oxospiro[3H-isoquinoline-4,1′-cyclopropane]-2-yl)acetamide]	1.91 µM
Cc1cnc2ccc(NC(=O)CN3CC4(CC4)c4cc(Br)ccc4C3=O)nn12 [Example 399, 2-(6-bromo-1-oxospiro[3H-isoquinoline-4,1′-cyclopropane]-2-yl)-N-(3-methylimidazo[1,2-b]pyridazin-6-yl)acetamide]	1.35 µM
Cc1cn2nc(NC(=O)CN3CC4(CC4)c4cc(Br)ccc4C3=O)ccc2n1 [Example 400, 2-(6-bromo-1-oxospiro[3H-isoquinoline-4,1′-cyclopropane]-2-yl)-N-(2-methylimidazo[1,2-b]pyridazin-6-yl)acetamide]	0.612 µM
COc1ncnc(NC(=O)CN2CC3(CC3)c3cc(Br)ccc3C2=O)c1F [Example 401, 2-(6-bromo-1-oxospiro[3H-isoquinoline-4,1′-cyclopropane]-2-yl)-N-(5-fluoro-6-methoxypyrimidin-4-yl)acetamide]	1.89 µM
Cc1c(NC(=O)CN2CC3(CC3)c3cc(Br)ccc3C2=O)nn2ccccc12 [Example 402, 2-(6-bromo-1-oxospiro[3H-isoquinoline-4,1′-cyclopropane]-2-yl)-N-(3-methylpyrazolo[1,5-a]pyridin-2-yl)acetamide]	9.27 µM
O=C(CN1CC2(CC2)c2cc(Br)ccc2C1=O)Nc1nn2ccccc2c1F [Example 403, 2-(6-bromo-1-oxospiro[3H-isoquinoline-4,1′-cyclopropane]-2-yl)-N-(3-fluoropyrazolo[1,5-a]pyridin-2-yl)acetamide]	2.32 µM
O=C(CN1CC2(CC2)c2cc([C@@]3(F)C[C@H]3C(F)(F)F)ccc2C1=O)Nc1ncc(F)cn1 [Example 404, N-(5-fluoropyrimidin-2-yl)-2-[6-[(1r,2r)-1-fluoro-2-(trifluoromethyl)cyclopropyl]-1-oxospiro[3H-isoquinoline-4,1′-cyclopropane]-2-yl]acetamide]	3.89 µM
CC1(C)COC(NC(=O)CN2CC3(CC3)c3cc(Br)ccc3C2=O)=N1 [Example 405, 2-(6-bromo-1-oxospiro[3H-isoquinoline-4,1′-cyclopropane]-2-yl)-N-(4,4-dimethyl-5H-1,3-oxazol-2-yl)acetamide]	18 µM
O=C(CN1CC2(CC2)c2cc(Br)ccc2C1=O)NC1CCNC1=O (stereo not drawn) [Example 406, 2-(6-bromo-1-oxospiro[3H-isoquinoline-4,1′-cyclopropane]-2-yl)-N-(2-oxopyrrolidin-3-yl)acetamide]	16.1 µM
COc1cccnc1NC(=O)CN1CC2(CC2)c2cc(Br)ccc2C1=O [Example 407, 2-(6-bromo-1-oxospiro[3H-isoquinoline-4,1′-cyclopropane]-2-yl)-N-(3-methoxypyridin-2-yl)acetamide]	4.28 µM
